Assay results published in ChEMBL document CHEMBL1140203, “cis-4-(Piperazin-1-yl)-5,6,7a,8,9,10,11,11a-octahydrobenzofuro[2,3-h]quinazolin-2-amine (A-987306), a new histamine H4R antagonist that blocks pain responses against carrageenan-induced hyperalgesia” (J Med Chem, 2008).

How the values were obtained:
Thromboxane A2 receptor = target: T1, Thromboxane A2 receptor (Homo sapiens, UniProt P21731)
T1 sequence (P21731 whole entry): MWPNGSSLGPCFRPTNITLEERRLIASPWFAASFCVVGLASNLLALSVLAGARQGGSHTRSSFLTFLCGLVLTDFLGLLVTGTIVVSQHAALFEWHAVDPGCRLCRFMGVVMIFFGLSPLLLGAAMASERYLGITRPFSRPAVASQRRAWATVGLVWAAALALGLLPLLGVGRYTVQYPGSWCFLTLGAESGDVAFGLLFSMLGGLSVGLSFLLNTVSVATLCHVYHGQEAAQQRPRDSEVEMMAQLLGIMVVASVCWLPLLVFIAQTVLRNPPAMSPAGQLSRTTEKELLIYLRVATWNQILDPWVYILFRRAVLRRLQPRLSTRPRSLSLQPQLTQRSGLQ

[1] = target: 5-hydroxytryptamine receptor 2B (Homo sapiens, UniProt P41595); assay type: functional
Chain of 5-hydroxytryptamine receptor 2B (P41595 whole entry): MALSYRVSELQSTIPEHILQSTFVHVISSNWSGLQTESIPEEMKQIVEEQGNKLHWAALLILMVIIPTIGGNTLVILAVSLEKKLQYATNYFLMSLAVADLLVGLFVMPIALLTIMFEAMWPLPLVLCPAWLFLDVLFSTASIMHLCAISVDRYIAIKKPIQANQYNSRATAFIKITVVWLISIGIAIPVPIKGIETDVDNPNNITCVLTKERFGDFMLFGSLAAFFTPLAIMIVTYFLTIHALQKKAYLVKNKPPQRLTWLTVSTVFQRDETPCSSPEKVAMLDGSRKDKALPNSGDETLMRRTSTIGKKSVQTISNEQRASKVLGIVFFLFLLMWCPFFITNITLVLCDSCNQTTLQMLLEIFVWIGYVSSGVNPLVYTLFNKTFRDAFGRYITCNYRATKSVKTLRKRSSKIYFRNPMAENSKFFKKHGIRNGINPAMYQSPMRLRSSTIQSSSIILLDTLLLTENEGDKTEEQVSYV

Histamine H4 receptor [2] = target: T2, Histamine H4 receptor (Homo sapiens, UniProt Q9H3N8); assay: biochemical; assay type: cell-based, HEK293
T2 sequence (Q9H3N8 whole entry): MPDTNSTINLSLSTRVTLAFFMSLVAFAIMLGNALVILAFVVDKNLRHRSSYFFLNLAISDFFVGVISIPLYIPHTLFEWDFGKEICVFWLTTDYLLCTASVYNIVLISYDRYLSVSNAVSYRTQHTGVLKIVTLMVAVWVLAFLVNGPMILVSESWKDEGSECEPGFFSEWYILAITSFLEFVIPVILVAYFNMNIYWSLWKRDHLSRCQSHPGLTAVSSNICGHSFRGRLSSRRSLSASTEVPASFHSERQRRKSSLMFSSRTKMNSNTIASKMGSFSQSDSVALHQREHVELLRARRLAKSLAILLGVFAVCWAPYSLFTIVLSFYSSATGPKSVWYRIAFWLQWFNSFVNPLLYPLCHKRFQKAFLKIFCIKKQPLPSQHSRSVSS

Histamine H1 receptor = Histamine H1 receptor (Homo sapiens, UniProt P35367)
Chain of Histamine H1 receptor (P35367 whole entry): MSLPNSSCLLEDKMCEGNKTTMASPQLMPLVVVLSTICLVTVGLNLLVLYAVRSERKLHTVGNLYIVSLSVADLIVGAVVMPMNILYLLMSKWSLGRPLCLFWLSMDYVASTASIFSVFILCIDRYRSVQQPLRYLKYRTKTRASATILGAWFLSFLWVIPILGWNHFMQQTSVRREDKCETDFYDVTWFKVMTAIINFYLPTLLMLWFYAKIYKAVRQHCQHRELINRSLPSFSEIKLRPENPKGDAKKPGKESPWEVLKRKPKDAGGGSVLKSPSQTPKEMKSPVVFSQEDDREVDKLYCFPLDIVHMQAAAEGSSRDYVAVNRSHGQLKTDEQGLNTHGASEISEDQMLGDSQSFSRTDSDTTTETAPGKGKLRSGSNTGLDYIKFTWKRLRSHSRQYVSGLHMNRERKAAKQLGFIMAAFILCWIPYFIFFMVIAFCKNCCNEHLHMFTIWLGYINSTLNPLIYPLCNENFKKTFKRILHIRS

in vivo [3] = conditions: Sprague-Dawley, rat, ip, 10 mg/kg
in vivo [4] = conditions: Sprague-Dawley, rat, po, 10 mg/kg
Histamine H3 receptor [5] = target: Histamine H3 receptor (Rattus norvegicus, UniProt Q9QYN8)
Chain of Histamine H3 receptor (Rattus norvegicus, UniProt Q9QYN8) (Q9QYN8 whole entry): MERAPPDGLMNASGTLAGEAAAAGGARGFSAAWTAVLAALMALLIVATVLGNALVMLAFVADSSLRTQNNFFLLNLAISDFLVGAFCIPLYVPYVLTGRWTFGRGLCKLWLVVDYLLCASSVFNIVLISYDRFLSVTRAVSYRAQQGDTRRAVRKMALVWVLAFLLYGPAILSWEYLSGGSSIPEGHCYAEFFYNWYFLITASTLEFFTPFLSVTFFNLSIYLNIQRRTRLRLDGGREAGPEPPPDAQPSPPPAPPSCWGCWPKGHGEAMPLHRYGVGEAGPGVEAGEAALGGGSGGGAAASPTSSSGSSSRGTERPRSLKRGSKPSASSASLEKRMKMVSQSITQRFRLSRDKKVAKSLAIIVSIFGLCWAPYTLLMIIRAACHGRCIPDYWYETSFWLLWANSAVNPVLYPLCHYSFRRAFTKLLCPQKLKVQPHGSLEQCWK

[6] = target: T3, 5-hydroxytryptamine receptor 2C (Homo sapiens, UniProt P28335)
T3 sequence (P28335 whole entry): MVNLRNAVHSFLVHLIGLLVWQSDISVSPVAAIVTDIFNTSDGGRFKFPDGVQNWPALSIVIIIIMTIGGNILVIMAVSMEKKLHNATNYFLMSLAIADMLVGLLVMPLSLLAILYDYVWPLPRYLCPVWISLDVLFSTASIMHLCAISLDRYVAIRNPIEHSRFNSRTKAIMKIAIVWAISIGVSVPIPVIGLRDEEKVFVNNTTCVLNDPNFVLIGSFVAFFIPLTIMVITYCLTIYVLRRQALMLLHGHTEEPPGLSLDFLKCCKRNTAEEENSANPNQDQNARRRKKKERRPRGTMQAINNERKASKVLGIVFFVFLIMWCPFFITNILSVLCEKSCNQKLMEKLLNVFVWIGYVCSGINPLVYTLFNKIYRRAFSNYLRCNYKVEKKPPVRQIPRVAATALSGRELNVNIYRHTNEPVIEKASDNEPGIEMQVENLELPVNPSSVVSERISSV

Histamine H2 receptor = Histamine H2 receptor (Homo sapiens, UniProt P25021)
Chain of Histamine H2 receptor (P25021 whole entry): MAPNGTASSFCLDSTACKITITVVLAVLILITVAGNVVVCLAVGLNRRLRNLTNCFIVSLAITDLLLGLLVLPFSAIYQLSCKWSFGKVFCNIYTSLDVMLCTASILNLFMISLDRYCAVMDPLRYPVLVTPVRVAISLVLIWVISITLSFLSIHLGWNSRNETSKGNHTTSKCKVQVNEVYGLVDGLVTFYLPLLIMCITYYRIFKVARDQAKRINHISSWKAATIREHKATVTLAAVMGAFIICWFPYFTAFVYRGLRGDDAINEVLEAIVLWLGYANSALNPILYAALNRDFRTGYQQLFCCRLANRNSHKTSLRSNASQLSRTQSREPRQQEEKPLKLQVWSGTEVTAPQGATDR

[7] = target: T4, C-C chemokine receptor type 1 (Homo sapiens, UniProt P32246)
T4 sequence (P32246 whole entry): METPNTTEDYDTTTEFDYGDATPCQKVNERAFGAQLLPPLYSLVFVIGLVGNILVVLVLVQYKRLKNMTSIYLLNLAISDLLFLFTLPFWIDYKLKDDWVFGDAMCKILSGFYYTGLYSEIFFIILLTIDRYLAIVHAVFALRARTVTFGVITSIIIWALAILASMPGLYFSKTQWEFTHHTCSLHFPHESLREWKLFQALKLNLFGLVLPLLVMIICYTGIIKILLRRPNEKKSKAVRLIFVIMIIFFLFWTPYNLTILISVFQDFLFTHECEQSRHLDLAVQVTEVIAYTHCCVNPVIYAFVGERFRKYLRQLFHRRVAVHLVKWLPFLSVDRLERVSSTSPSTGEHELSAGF

Rattus norvegicus [8] = species: Rattus norvegicus; conditions: in vivo, ip, 30 umol/kg
Histamine H4 receptor [9] = target: Histamine H4 receptor (Rattus norvegicus, UniProt Q91ZY1); assay: biochemical; assay type: cell-based, HEK293
Chain of Histamine H4 receptor (Rattus norvegicus, UniProt Q91ZY1) (Q91ZY1 whole entry): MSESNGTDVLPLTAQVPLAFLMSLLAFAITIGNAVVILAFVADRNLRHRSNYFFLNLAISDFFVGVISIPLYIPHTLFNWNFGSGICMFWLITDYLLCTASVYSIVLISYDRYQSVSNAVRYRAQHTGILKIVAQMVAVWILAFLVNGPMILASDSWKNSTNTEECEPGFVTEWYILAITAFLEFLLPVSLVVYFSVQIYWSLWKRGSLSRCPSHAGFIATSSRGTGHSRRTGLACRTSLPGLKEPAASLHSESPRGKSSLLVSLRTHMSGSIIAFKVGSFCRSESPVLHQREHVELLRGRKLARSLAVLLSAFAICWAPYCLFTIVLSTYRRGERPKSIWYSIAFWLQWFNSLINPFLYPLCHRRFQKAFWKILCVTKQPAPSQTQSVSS

in vivo [10] = conditions: Sprague-Dawley, rat, po, 10 mg/kg; remark: listed apart in the source
[11] = target: T5, Histamine H4 receptor (Mus musculus) (UniProt Q91ZY2)
T5 sequence (whole entry): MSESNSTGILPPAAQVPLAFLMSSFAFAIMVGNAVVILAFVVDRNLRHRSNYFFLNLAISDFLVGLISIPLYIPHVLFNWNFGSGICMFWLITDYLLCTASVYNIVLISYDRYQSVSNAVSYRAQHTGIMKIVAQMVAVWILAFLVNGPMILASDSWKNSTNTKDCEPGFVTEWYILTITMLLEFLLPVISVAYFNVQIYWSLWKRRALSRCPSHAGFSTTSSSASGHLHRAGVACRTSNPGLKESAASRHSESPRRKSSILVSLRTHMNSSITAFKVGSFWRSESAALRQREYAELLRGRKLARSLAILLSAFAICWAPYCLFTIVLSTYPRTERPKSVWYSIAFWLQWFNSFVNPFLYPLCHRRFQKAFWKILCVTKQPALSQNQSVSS

in vivo [12] = conditions: Sprague-Dawley, rat, po, 10 mg/kg; remark: listed apart in the source
Rattus norvegicus [13] = species: Rattus norvegicus; assay: animal or person; assay type: functional; conditions: ip
Mus musculus [14] = species: Mus musculus; assay type: functional, organism-based, BALB/c
Mus musculus [15] = species: Mus musculus; conditions: CD-1(ICR), in vivo, ip, 0.3 umol/kg
Rattus norvegicus [16] = species: Rattus norvegicus; conditions: in vivo, ip, 100 umol/kg
in vivo [17] = conditions: Sprague-Dawley, rat, ip, 10 mg/kg; remark: listed apart in the source
Substance-K receptor = target: T6, Substance-K receptor (Homo sapiens, UniProt P21452)
T6 sequence (P21452 whole entry): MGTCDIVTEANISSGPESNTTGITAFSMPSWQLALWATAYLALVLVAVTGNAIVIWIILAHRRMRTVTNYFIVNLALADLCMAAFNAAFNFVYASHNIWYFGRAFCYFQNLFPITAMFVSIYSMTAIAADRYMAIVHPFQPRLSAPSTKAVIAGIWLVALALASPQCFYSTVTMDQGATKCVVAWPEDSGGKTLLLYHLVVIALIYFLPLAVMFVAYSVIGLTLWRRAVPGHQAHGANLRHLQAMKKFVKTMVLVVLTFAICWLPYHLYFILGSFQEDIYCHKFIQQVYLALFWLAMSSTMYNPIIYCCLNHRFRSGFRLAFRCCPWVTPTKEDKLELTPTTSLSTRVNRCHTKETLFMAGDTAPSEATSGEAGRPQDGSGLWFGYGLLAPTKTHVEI

Histamine H3 receptor [18] = target: Histamine H3 receptor (Homo sapiens, UniProt Q9Y5N1)
Chain of Histamine H3 receptor (Homo sapiens, UniProt Q9Y5N1) (Q9Y5N1 whole entry): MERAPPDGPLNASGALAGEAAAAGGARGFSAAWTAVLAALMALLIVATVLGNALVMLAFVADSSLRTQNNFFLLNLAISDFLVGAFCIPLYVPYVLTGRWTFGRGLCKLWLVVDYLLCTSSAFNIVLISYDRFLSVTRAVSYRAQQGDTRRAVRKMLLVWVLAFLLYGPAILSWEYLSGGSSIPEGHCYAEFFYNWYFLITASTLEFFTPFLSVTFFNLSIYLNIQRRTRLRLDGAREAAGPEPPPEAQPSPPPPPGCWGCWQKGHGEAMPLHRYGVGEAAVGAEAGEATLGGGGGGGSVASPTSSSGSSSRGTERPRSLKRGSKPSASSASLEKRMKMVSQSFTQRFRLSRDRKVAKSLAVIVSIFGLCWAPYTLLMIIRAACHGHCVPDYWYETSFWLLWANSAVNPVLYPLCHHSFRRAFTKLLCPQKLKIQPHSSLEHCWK

Vasopressin V1a receptor = Vasopressin V1a receptor (Homo sapiens, UniProt P37288)
Chain of Vasopressin V1a receptor (P37288 whole entry): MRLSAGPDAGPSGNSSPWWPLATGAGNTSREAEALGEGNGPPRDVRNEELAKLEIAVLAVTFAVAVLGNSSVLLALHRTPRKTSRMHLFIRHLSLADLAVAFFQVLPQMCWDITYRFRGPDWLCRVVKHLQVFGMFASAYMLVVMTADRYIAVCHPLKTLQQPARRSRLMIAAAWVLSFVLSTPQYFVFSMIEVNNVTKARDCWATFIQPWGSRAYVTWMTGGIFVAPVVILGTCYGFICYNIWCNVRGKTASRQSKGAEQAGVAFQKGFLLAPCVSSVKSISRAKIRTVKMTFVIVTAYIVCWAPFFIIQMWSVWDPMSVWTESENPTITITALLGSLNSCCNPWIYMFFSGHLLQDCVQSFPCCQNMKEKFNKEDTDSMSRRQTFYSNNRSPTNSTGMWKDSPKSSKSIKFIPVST

in vivo [19] = conditions: Sprague-Dawley, rat, ip, 10 mg/kg; remark: listed apart in the source
Histamine H4 receptor [20] = target: T2, Histamine H4 receptor; conditions: HEK293
in vivo [21] = conditions: Sprague-Dawley, rat, ip, 10 mg/kg; remark: listed apart in the source
Mus musculus [22] = species: Mus musculus; assay: animal or person; assay type: functional; conditions: CD-1(ICR), ip
in vitro = conditions: Sprague-Dawley, rat, plasma
in vivo [23] = conditions: Sprague-Dawley, rat, po, 10 mg/kg; remark: listed apart in the source
[24] = target: Histamine H4 receptor (Rattus norvegicus) (UniProt Q91ZY1)
Chain of Histamine H4 receptor (Rattus norvegicus) (Q91ZY1 whole entry): as the sequence (Q91ZY1 whole entry) above

[25] = target: T7, Muscarinic acetylcholine receptor M5 (Homo sapiens, UniProt P08912)
T7 sequence (P08912 whole entry): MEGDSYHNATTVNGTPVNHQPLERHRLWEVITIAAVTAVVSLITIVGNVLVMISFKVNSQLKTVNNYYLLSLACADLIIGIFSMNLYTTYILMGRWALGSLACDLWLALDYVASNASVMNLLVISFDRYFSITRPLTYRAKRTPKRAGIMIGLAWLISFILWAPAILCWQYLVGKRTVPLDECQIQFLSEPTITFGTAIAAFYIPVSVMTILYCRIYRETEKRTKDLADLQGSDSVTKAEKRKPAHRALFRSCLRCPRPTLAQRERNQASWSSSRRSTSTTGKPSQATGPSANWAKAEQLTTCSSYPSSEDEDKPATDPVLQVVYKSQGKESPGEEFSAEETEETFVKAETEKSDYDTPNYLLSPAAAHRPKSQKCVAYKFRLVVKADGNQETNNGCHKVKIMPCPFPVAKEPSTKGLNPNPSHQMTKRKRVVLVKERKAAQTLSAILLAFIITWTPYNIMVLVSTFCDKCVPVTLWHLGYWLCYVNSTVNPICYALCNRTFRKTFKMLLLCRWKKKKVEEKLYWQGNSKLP

[26] = target: Small conductance calcium-activated potassium channel protein 1 (Homo sapiens, UniProt Q92952)
Chain of Small conductance calcium-activated potassium channel protein 1 (Q92952 whole entry): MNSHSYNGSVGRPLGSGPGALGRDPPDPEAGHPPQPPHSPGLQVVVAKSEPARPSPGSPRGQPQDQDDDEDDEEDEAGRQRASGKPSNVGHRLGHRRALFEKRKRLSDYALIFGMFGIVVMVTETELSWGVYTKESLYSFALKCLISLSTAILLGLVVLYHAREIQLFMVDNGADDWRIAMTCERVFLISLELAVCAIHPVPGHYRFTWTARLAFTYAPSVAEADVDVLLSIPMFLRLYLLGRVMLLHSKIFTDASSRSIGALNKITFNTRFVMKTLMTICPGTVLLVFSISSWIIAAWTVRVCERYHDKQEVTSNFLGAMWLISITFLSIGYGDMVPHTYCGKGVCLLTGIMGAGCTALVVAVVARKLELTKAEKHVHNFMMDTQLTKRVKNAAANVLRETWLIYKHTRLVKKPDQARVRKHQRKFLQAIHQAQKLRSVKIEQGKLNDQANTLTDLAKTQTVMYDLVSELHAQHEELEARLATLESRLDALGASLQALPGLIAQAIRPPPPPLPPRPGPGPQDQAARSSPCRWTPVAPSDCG

[27] = target: T3, 5-hydroxytryptamine receptor 2C; remark: listed apart in the source

CCCCC[C@H](O)/C=C/[C@H]1C2COC(C2)[C@@H]1C/C=C\CCCC(=O)O (some centres not stated)
IC50 (Thromboxane A2 receptor): 37 nM | Ki (Thromboxane A2 receptor): 16 nM

COc1cc(CC(C)N)c(OC)cc1I (racemic)
IC50 [1]: 3.5 nM | Ki [1]: 3.5 nM

Nc1nc2c(c(N3CCNCC3)n1)CCC1=C2[C@@H]2CCCC[C@@H]2O1 (relative stereo)
Ki (Histamine H4 receptor [2]): 5.75 nM | Ki (Histamine H1 receptor): 3550 nM | Cmax (in vivo [3]): 1730 nM | Cmax (in vivo [4]): 300 nM | Ki (Histamine H3 receptor [5]): 13.5 nM | IC50 [6]: 11700 nM | Ki (Histamine H2 receptor): > 9120 nM | IC50 [7]: 0.087 nM | Ki [7]: 0.043 nM | Cp (Rattus norvegicus [8]): 610 ng/mL | Ki (Histamine H4 receptor [9]): 3.39 nM | Tmax (in vivo [10]): 1.5 h | pKb [11]: 8.2 | bioavailability (in vivo [12]): 26% | ED50 (Rattus norvegicus [13]): 42 µmol/kg | IC50 (Mus musculus [14]): 125 µmol/kg | Cp (Mus musculus [15]): 15 ng/mL | Cp (Rattus norvegicus [16]): 2900 ng/mL | half-life (in vivo [17]): 4.7 h | IC50 (Substance-K receptor): 5.7 nM | Ki (Substance-K receptor): 3.1 nM | Ki (Histamine H3 receptor [18]): 933 nM | IC50 (Vasopressin V1a receptor): 3.9 nM | Ki (Vasopressin V1a receptor): 2.4 nM | bioavailability (in vivo [19]): 72% | pKb (Histamine H4 receptor [20]): 8.33 | Tmax (in vivo [21]): 0.25 h | ED50 (Mus musculus [22]): 0.36 µmol/kg | fraction unbound (in vitro): 0.41 | half-life (in vivo [23]): 3.7 h | pKb [24]: 8.3

C[N+]1(C)CCC(OC(=O)C(c2ccccc2)c2ccccc2)CC1 [4-DAMP]
IC50 [25]: 0.83 nM | Ki [25]: 0.42 nM

CC(C)C[C@@H]1NC(=O)[C@H](C)NC(=O)[C@H]([C@@H](C)O)NC(=O)[C@H](CCC(=O)O)NC(=O)[C@@H]2CCCN2C(=O)[C@H](C)NC(=O)[C@H](CCCCN)NC(=O)[C@@H]2CSSC[C@@H](C(=O)N[C@@H](CCC(N)=O)C(=O)N[C@@H](CCC(N)=O)C(=O)N[C@@H](Cc3cnc[nH]3)C(N)=O)NC(=O)[C@H](CCCNC(=N)N)NC(=O)[C@H](CCCNC(=N)N)NC(=O)[C@H](C)NC(=O)[C@H](CSSC[C@H](N)C(=O)N[C@@H](CC(N)=O)C(=O)N2)NC1=O [APAMIN]
IC50 [26]: 0.014 nM | Ki [26]: 0.0068 nM

CN1CCN(C(=O)c2cc3cc(Cl)ccc3[nH]2)CC1 [JNJ-7777120]
Ki (Histamine H2 receptor): > 8510 nM

COc1cc(OC)c(C(=O)CCCCN2CCC3(CC2)NC(=O)NC3=O)cc1NS(=O)(=O)c1ccc(C(F)(F)F)cc1 [RS-102,221]
IC50 [27]: 8.3 nM | Ki [27]: 3.9 nM
